Measurements reported in patent US20040137514A1, “Use of antibodies against specific mhc-peptide complexes” (priority 2000, published 2004).

Columns and labels:
T cells of RA patients = conditions: cited from earlier work
BLCL = experiment: FACS control: peptide binding to BLCL; parameters: species or system human; conditions: data not shown
Protocol: Briefly, 10^6 BLCL were incubated with 40 μg peptide in 500 μl DMEM/HAM's F12 or blank medium for 4 h at 37° C. After this incubation, the cells were washed with PBS, 2% FCS, 0.02% sodiumazide. Approximately 2×10^5 cells were incubated for 1 h, 4° C. with 130 μl MAb-containing hybridoma supernatant plus 20 μl PBS, 20% FCS, 0.02% sodiumazide. After washing the cells twice with PBS, 2% FCS, 0.02% sodiumazide, they were incubated for 1 h, 4° C. with 50 μl PBS, 20% FCS, 0.02% sodiumazide plus 10 μl Goat anti-mouseIg/FITC (Beckton & Dickinson). Subsequently, the cells were washed three times with PBS, 2% FCS, 0.02% sodiumazide and finally resuspended in 400 μl PBS, 2% p-formaldehyde. As a control for peptide binding, cells were incubated with biotinylated HC gp39263-275 and stained with streptavidin/PE (Beckton & Dickinson). As a control for HLA-DR expression, staining was performed with anti-HLA/DR, L243 (purified Ig from hybridoma ATCC HB 55). Stained cells were analyzed with the FACScan™ (Beckton & Dickinson). In all cases, forward and side scatter analysis was applied to eliminate dead cells and debris from further analysis.
These homozygous BLCL were loaded with HC gp-39263-275 and subsequently stained with ORG38948 12A. In a series of experiments, ORG38948 12A stains HC gp-39^263-275 in the context of both DRB1*0401 and DRB1*0407 (Table V). […]

[1] = intranasal administration prior to immunization; cited from earlier work
[2] = DBA/1 mice, semi-therapeutic regime; cited from earlier work
[3] = BALB/c mice; cited from earlier work

Question: With “326-338: peptide 326-338 of HC gp-39 (VGYDDQESVKSKV; HC gp-39 AA 326-338; listed as Homo sapiens)” as the substance, how does the “recognition by T cells of RA patients” value (T cells of RA patients) read?
Answer: recognized

Question: For RSFTLASSETG, which “binding of peptide to the BLCL” value (BLCL) is on record?
Answer: binds to the BLCL

Question: For “human cartilage glycoprotein-39 [HC gp-39]”, which DTH responses [1] is on record?
Answer: complete abrogation of DTH responses

Question: And the disease development [1]?
Answer: protection from or delayed onset of the disease

Question: And the “incidence and severity of collagen type II induced arthritis” value [2]?
Answer: could reduce

Question: And the outcome of immunisation [3]?
Answer: development of a chronic, relapsing arthritis
